≈ marks a conversion by molar mass, not a printed value. Where “and” joins values, the source holds several entries; their conditions need not be identical. Equal values may be shown once.
Columns and labels:
[1] = Stability of active ingredient in volatile solvents, 20-28 hours at ambient (UPLC assay and impurities); conditions: for Assay (as % of nominal): vial replicates
Experimental: Note the incubation for the stability studies were all performed in a similar way: • All were put into 4 mL amber glass vials. • The Initial samples were not analysed as soon as sampled but instead were frozen at −20° C. until the point of analysing the incubated samples (e.g after 28 days at 25, 40 or 50° C.) to avoid degradation of the active ingredient.
Chemical stability was determined by assay (results in Table 8) and quantification of potential active ingredient related substances (shown in
Table 9). […] The objective was to establish whether any active ingredient-related substances might be increasing as a result of the ambient hold.

[2] = Solubility of active ingredient in volatile solvents (visual); conditions: for solubility: thermodynamic from solid, Solubility of the active ingredient; for solubility / Solubility of the active ingredient: visual; for Solubility of the active ingredient: listed as active ingredient
Experimental: The active ingredient was dissolved in different solvents and the stability of the solution was assessed after being held overnight at ambient temperature. The following solvents were studied: ethanol, 50:50 EtOH:Water, 0.1 M HCl, pH 3 citric acid buffer, 5% SLS aq. and 5% Tween 80 aq.
This study involved assessing the solubility and the chemical stability of the active ingredient in different volatile solvents for use in wet granulation. The solubility was measured visually after mixing (by the disappearance of undissolved solids). Increasing quantities of each solvent were added as detailed above.

[3] = Ethanol absolute, 24 hour, listed as active ingredient
[4] = Ethanol absolute, Initial, listed as active ingredient
[5] = pH 3 citric acid buffer, 24 hour
[6] = pH 3 citric acid buffer, 24 hour, listed as active ingredient
[7] = pH 3 citric acid buffer, Initial
[8] = pH 3 citric acid buffer, Initial, listed as active ingredient

For `CCS(=O)(=O)Nc1ccc2c(c1)nc(C(C)(C)C)n2CC1CCC(F)(F)CC1` [Compound I, N-(2-(tert-butyl)-1-((4,4-difluorocyclohexyl)methyl)-1H-benzimidazol-5-yl)ethanesulfonamide], the “Impurity peak area, RRT 1.23*” value ([1]; Ethanol absolute, 24 hour) was 0.07 % of Total, the “Impurity peak area, RRT 1.24*” value ([1]; Ethanol absolute, 24 hour) was <0.05 % of Total and the “Impurity peak area, RRT 1.35*” value ([1]; Ethanol absolute, 24 hour) was 0.08 % of Total. The “Impurity peak area, RRT 1.36*” value ([1]; Ethanol absolute, 24 hour) was 0.06 % of Total, the “Impurity peak area, RRT 0.84*” value [1, 3] was 0.33 % of Total and 0.35 % of Total and the “Impurity peak area, RRT 0.98* (first row)” value [1, 3] was 0.22 % of Total and 0.20 % of Total. The “Impurity peak area, RRT 0.98* (second row)” value [1, 3] was 0.13 % of Total and 0.14 % of Total, the “Impurity peak area, Total” value [1, 3] was 0.89 % of Total and 0.90 % of Total and the “Impurity peak area, Total excluding artifact” value [1, 3] was 0.89 % of Total and 0.90 % of Total. The “Assay (as % of nominal), Mean” value ([1]; Ethanol absolute, Initial) was 98.8 % of nominal, the “Impurity peak area, RRT 0.38” value ([1]; Ethanol absolute, Initial) was 0.07 % of Total and the “Impurity peak area, RRT 0.61” value ([1]; Ethanol absolute, Initial) was 0.08 % of Total. The “Impurity peak area, RRT 0.62” value ([1]; Ethanol absolute, Initial) was 0.09 % of Total, the “Impurity peak area, RRT 0.83” value ([1]; Ethanol absolute, Initial) was 0.18 % of Total and the “Impurity peak area, RRT 0.92” value ([1]; Ethanol absolute, Initial) was <0.05 % of Total. The “Impurity peak area, RRT 0.98* (second row)” value ([1]; Ethanol absolute, Initial) was 0.12 % of Total, the “Impurity peak area, RRT 1.24*” value ([1]; Ethanol absolute, Initial) was <0.05 % of Total and the “Impurity peak area, RRT 1.36*” value ([1]; Ethanol absolute, Initial) was 0.06 % of Total. For the same compound, the “Impurity peak area, RRT 0.84*” value [1, 4] was 0.37 % of Total and 0.33 % of Total, the “Impurity peak area, RRT 0.98* (first row)” value [1, 4] was 0.20 % of Total and 0.22 % of Total and the “Impurity peak area, RRT 1.04*” value [1, 4] was 0.05 % of Total and <0.05 % of Total. The “Impurity peak area, RRT 1.23*” value [1, 4] was 0.08 % of Total and 0.07 % of Total, the “Impurity peak area, RRT 1.35*” value [1, 4] was 0.08 % of Total and 0.09 % of Total and the “Impurity peak area, Total” value [1, 4] was 0.96 % of Total and 1.47 % of Total. For the same compound, the “Impurity peak area, Total excluding artifact” value [1, 4] was 0.96 % of Total and 0.89 % of Total, the “Degradation of the active ingredient” value ([1]; four volatile solvents, 20-28 hour hold at ambient temperature) was “no evidence for any active ingredient degradation” and the “Total impurities, highest in any case” value ([1]; four volatile solvents, initial and 20-28 hour ambient hold) was ≤ 1.17 % of the total peak area. For the same compound, the “Impurity peak area, RRT 0.92” value [1, 5] was 0.06 % of Total, the “Impurity peak area, RRT 1.04*” value [1, 5] was 0.09 % of Total and the “Impurity peak area, RRT 1.23*” value [1, 5] was 0.10 % of Total. The “Impurity peak area, RRT 0.38” value [1, 6] was 0.26 % of Total and 0.14 % of Total, the “Impurity peak area, RRT 0.61” value [1, 6] was 0.07 % of Total and 0.10 % of Total and the “Impurity peak area, RRT 0.62” value [1, 6] was 0.07 % of Total and 0.11 % of Total. The “Impurity peak area, RRT 0.83” value [1, 6] was 0.30 % of Total and 0.16 % of Total, the “Impurity peak area, RRT 0.84*” value [1, 6] was 0.30 % of Total and 0.37 % of Total and the “Impurity peak area, RRT 0.98* (first row)” value [1, 6] was 0.22 % of Total and 0.21 % of Total. For the same compound, the “Impurity peak area, RRT 0.98* (second row)” value [1, 6] was 0.13 % of Total and 0.14 % of Total, the “Impurity peak area, RRT 1.24*” value [1, 6] was <0.05 % of Total and 0.06 % of Total and the “Impurity peak area, Total” value [1, 6] was 1.88 % of Total and 1.82 % of Total. For the same compound, the “Impurity peak area, Total excluding artifact” value [1, 6] was 0.90 % of Total and 1.03 % of Total, the “Assay (as % of nominal), Mean” value ([1]; pH 3 citric acid buffer, 24 hours ambient) was 95.8 % of nominal and the “Assay (as % of nominal)” value ([1]; pH 3 citric acid buffer, 24 hours ambient, listed as active ingredient) was 109.6 % of nominal and 82.1 % of nominal. The “Assay (as % of nominal), Mean” value [1, 7] was 109.6 % of nominal, the “Impurity peak area, RRT 0.38” value [1, 7] was 0.27 % of Total and the “Impurity peak area, RRT 0.41” value [1, 7] was 0.26 % of Total. The “Impurity peak area, RRT 0.61” value [1, 7] was 0.05 % of Total, the “Impurity peak area, RRT 0.62” value [1, 7] was 0.06 % of Total and the “Impurity peak area, RRT 0.83” value [1, 7] was 0.21 % of Total. The “Impurity peak area, RRT 0.86^$ (PDA spectra unrelated to the active ingredient)” value [1, 7] was <0.05 % of Total, the “Impurity peak area, RRT 1.04*” value [1, 7] was 0.09 % of Total and the “Impurity peak area, RRT 1.24*” value [1, 7] was <0.05 % of Total. The “Impurity peak area, RRT 0.92” value [1, 8] was 0.10 % of Total and 0.09 % of Total, the “Impurity peak area, RRT 0.98* (first row)” value [1, 8] was 0.23 % of Total and 0.21 % of Total and the “Impurity peak area, RRT 0.98* (second row)” value [1, 8] was 0.11 % of Total and 0.13 % of Total. The “Impurity peak area, RRT 1.23*” value [1, 8] was 0.16 % of Total and 0.12 % of Total, the “Impurity peak area, Total” value [1, 8] was 1.79 % of Total and 0.97 % of Total and the “Impurity peak area, Total excluding artifact” value [1, 8] was 0.94 % of Total and 0.97 % of Total. For the same compound, the “Assay (as % of nominal)” value [1, 8] was 108.8 % of nominal and 110.4 % of nominal, the solubility ([2]; 0.1 M HCl, simulated gastric fluid) was 7000 µg/mL (≈ 16.9 mM) and the “Solubility of the active ingredient” value ([2]; 0.1 M HCl) was > 7000 µg/mL. The Time to dissolve ([2]; 5% SLS aq., 0.6 mg/mL) was 70 min, the “Time to dissolve (DND = did not dissolve)” value ([2]; 5% SLS aq., 3 mg/mL) was “DND” and the “Time to dissolve (DND = did not dissolve)” value ([2]; 5% SLS aq., 7 mg/mL) was “DND”. The solubility ([2]; 5% Tween 80 aq., aqueous with cosolvent or surfactant or cyclodextrin, 5% Tween 80) was < 600 µg/mL, the “Time to dissolve (DND = did not dissolve)” value ([2]; 5% Tween 80 aq., 0.6 mg/mL) was “DND” and the “Time to dissolve (DND = did not dissolve)” value ([2]; 5% Tween 80 aq., 3 mg/mL) was “DND”. The “Time to dissolve (DND = did not dissolve)” value ([2]; 5% Tween 80 aq., 7 mg/mL) was “DND”, the solubility ([2]; 50:50 EtOH:water, aqueous with cosolvent or surfactant or cyclodextrin, 50:50 EtOH:water) was < 600 µg/mL and the “Time to dissolve (DND = did not dissolve)” value ([2]; 50:50 EtOH:water, 0.6 mg/mL) was “DND”. For the same compound, the “Time to dissolve (DND = did not dissolve)” value ([2]; 50:50 EtOH:water, 3 mg/mL) was “DND”, the “Time to dissolve (DND = did not dissolve)” value ([2]; 50:50 EtOH:water, 7 mg/mL) was “DND” and the solubility ([2]; aqueous 5% SLS, aqueous with cosolvent or surfactant or cyclodextrin) was > 600 µg/mL. For the same compound, the solubility ([2]; ethanol, organic solvent or mixture) was 7000 µg/mL (≈ 16.9 mM), the “Solubility of the active ingredient” value ([2]; ethanol) was > 7000 µg/mL and the solubility ([2]; pH 3 citric acid buffer, pH 3, aqueous buffer, pH 3 citric buffer) was > 600 µg/mL. The Time to dissolve ([2]; pH 3 citric acid buffer, 0.6 mg/mL) was 180 min, the “Time to dissolve (DND = did not dissolve)” value ([2]; pH 3 citric acid buffer, 3 mg/mL) was “DND” and the “Time to dissolve (DND = did not dissolve)” value ([2]; pH 3 citric acid buffer, 7 mg/mL) was “DND”.
